Results reported in patent US20200131196A1 (Mount Tam Therapeutics, Inc., priority 2017, published 2020).
Read-outs that look alike come from different tables or passages of the source.

Columns and labels:
Assay type in all cases: cell-based, human
A431 = assay: OncoPanel cell proliferation assay, A431
Procedure: (§1) Cells were grown in RPMI 1640, 10% FBS, 2 mM L-alanyl-L-glutamine, 1 mM Na pyruvate, or a special medium. Cells were seeded into 384-well plates and incubated in a humidified atmosphere of 5% CO2 at 37° C. Compounds were added the day following cell seeding. At the same time, a time zero untreated cell plate was generated. After a 3-day incubation period, cells were fixed and stained to allow fluorescence imaging of nuclei. Compounds (1 mM stock solutions) were serially diluted in half-log steps from the highest test concentration ([…]), and assayed over 10 concentrations with a maximum assay concentration of 0.1% DMSO. Automated fluorescence microscopy was carried out using a Molecular Devices ImageXpress Micro XL high-content imager, and images were collected with a 4× objective. 16-bit TIFF images were acquired and analyzed with MetaXpress 5.1.0.41 software.
(§2) Cell proliferation was measured by the fluorescence intensity of an incorporated nuclear dye. The output is referred to as the relative cell count, where the measured nuclear intensity is transformed to percent of control (POC) using the following formula: […]
(§3) Cellular response parameters were calculated using nonlinear regression to a sigmoidal single-site dose response model:
(§4) EC50 is the test compound concentration at the curve inflection point or half the effective response (parameter C of the fitted curve solution). GI50 is the concentration needed to reduce the observed growth by half (midway between the curve maximum and the time zero value). “Cell Count Activity Area” is an estimate of the integrated area above the curve (Barretina, et al. The Cancer Cell Line Encyclopedia enables predictive modelling of anticancer drug sensitivity. Nature 483: 603-607). […] In rare instances, values <0 or >10 may be observed. […] Curve-fitting, calculations, and report generation was performed using a custom data reduction engine and MathIQ based software (AIM).

SW579 = assay: OncoPanel cell proliferation assay, SW579
Procedure: as §1, §2, §3, §4

SW684 = assay: OncoPanel cell proliferation assay, SW684
Procedure: as §1, with “Cells” for “Cells were grown in RPMI 1640, 10% FBS, 2 mM L-alanyl-L-glutamine, 1 mM Na pyruvate, or a special medium. Cells”
as §2, §3
GI50 is the concentration needed to reduce the observed growth by half (midway between the curve maximum and the time zero value). […] In rare instances, values <0 or >10 may be observed. […] Curve-fitting, calculations, and report generation was performed using a custom data reduction engine and MathIQ based software (AIM).

CML-T1 = assay: OncoPanel cell proliferation assay, CML-T1
Procedure: as §1, §2, §3, §4

786-O = assay: OncoPanel cell proliferation assay, 786-O
Procedure: as §1, §2, §3, §4

SK-MEL-28 = assay: OncoPanel cell proliferation assay, SK-MEL-28
Procedure: as §1, §2, §3, §4

[1] = Homo sapiens, read-out: Cell Count EC50
[2] = Homo sapiens, read-out: Cell Count GI50
[3] = Homo sapiens, read-out: Cell Count IC50

Structure (SMILES): CO[C@H]1C[C@@H]2CC[C@@H](C)[C@@](O)(O2)C(=O)C(=O)N2CCCC[C@H]2C(=O)O[C@H]([C@H](C)C[C@H]2C[C@H]3C[C@@H]2C[C@@H]3O)CC(=O)[C@H](C)/C=C(\C)[C@@H](O)[C@@H](OC)C(=O)[C@H](C)C[C@H](C)/C=C/C=C/C=C/1C [Formula II, C37-[(1R,2S,4R,5S)-5-hyhroxybicyclo[2.2.1]heptane] rapamycin]
- Cell Count Activity Area (A431): 1.43
- Relative cell count (%) Mean (A431; 1.00E+00 microM): 71.4%
- Relative cell count (%) Mean (A431; 1.00E-01 microM): 80.3%
- Relative cell count (%) Mean (A431; 1.00E-02 microM): 85.0%
- Relative cell count (%) Mean (A431; 1.00E-03 microM): 94.6%
- Relative cell count (%) Mean (A431; 1.01E-04 microM): 103.1%
- Relative cell count (%) Mean (A431; 3.16E-01 microM): 75.3%
- Relative cell count (%) Mean (A431; 3.17E-02 microM): 81.8%
- Relative cell count (%) Mean (A431; 3.17E-03 microM): 96.4%
- Relative cell count (%) Mean (A431; 3.18E-04 microM): 102.0%
- Relative cell count (%) Mean (A431; 3.18E-05 microM): 100.9%
- EC50 (A431; Homo sapiens, A-431, Skin, Head/Neck, summary Table 5, read-out: EC50): 12 nM
- EC50 (A431; Homo sapiens, A-431, read-out: Cell Count EC50): 12.1 nM
- GI50 (A431; Homo sapiens, A-431, read-out: Cell Count GI50): > 1000 nM
- IC50 (A431; Homo sapiens, A-431, read-out: Cell Count IC50): > 1000 nM
- Cell Count Activity Area (SW579): 4.51
- Relative cell count (%) Mean (SW579; 1.00E+00 microM): 43.1%
- Relative cell count (%) Mean (SW579; 1.00E-01 microM): 43.4%
- Relative cell count (%) Mean (SW579; 1.00E-02 microM): 51.1%
- Relative cell count (%) Mean (SW579; 1.00E-03 microM): 64.1%
- Relative cell count (%) Mean (SW579; 1.01E-04 microM): 82.8%
- Relative cell count (%) Mean (SW579; 3.16E-01 microM): 40.8%
- Relative cell count (%) Mean (SW579; 3.17E-02 microM): 49.9%
- Relative cell count (%) Mean (SW579; 3.17E-03 microM): 50.2%
- Relative cell count (%) Mean (SW579; 3.18E-04 microM): 66.2%
- Relative cell count (%) Mean (SW579; 3.18E-05 microM): 86.0%
- EC50 (SW579; [1]): 0.204 nM
- GI50 (SW579; [2]): 1.06 nM
- IC50 (SW579; [3]): 4.52 nM
- Cell Count Activity Area (SW684): 2.97
- Relative cell count (%) Mean (SW684; 1.00E+00 microM): 49.0%
- Relative cell count (%) Mean (SW684; 1.00E-01 microM): 55.6%
- Relative cell count (%) Mean (SW684; 1.00E-02 microM): 71.4%
- Relative cell count (%) Mean (SW684; 1.00E-03 microM): 85.1%
- Relative cell count (%) Mean (SW684; 1.01E-04 microM): 94.1%
- Relative cell count (%) Mean (SW684; 3.16E-01 microM): 52.4%
- Relative cell count (%) Mean (SW684; 3.17E-02 microM): 63.3%
- Relative cell count (%) Mean (SW684; 3.17E-03 microM): 71.8%
- Relative cell count (%) Mean (SW684; 3.18E-04 microM): 86.4%
- Relative cell count (%) Mean (SW684; 3.18E-05 microM): 99.5%
- EC50 (SW684; [1]): 4.57 nM
- GI50 (SW684; [2]): 2.19 nM
- IC50 (SW684; [3]): 370 nM
- Cell Count Activity Area (CML-T1): 3.68
- Relative cell count (%) Mean (CML-T1; 1.00E+00 microM): 44.0%
- Relative cell count (%) Mean (CML-T1; 1.00E-01 microM): 46.4%
- Relative cell count (%) Mean (CML-T1; 1.00E-02 microM): 54.5%
- Relative cell count (%) Mean (CML-T1; 1.00E-03 microM): 67.7%
- Relative cell count (%) Mean (CML-T1; 1.01E-04 microM): 96.1%
- Relative cell count (%) Mean (CML-T1; 3.16E-01 microM): 42.4%
- Relative cell count (%) Mean (CML-T1; 3.17E-02 microM): 46.2%
- Relative cell count (%) Mean (CML-T1; 3.17E-03 microM): 59.5%
- Relative cell count (%) Mean (CML-T1; 3.18E-04 microM): 78.8%
- Relative cell count (%) Mean (CML-T1; 3.18E-05 microM): 96.6%
- EC50 (CML-T1; [1]): 0.821 nM
- GI50 (CML-T1; [2]): 3.64 nM
- IC50 (CML-T1; [3]): 12.5 nM
- Relative cell count (%) Mean (786-O; 786-0, 1.00E+00 microM): 36.7%
- Relative cell count (%) Mean (786-O; 786-0, 1.00E-01 microM): 45.5%
- Relative cell count (%) Mean (786-O; 786-0, 1.00E-02 microM): 55.7%
- Relative cell count (%) Mean (786-O; 786-0, 1.00E-03 microM): 78.6%
- Relative cell count (%) Mean (786-O; 786-0, 1.01E-04 microM): 92.0%
- Relative cell count (%) Mean (786-O; 786-0, 3.16E-01 microM): 43.3%
- Relative cell count (%) Mean (786-O; 786-0, 3.17E-02 microM): 48.2%
- Relative cell count (%) Mean (786-O; 786-0, 3.17E-03 microM): 65.0%
- Relative cell count (%) Mean (786-O; 786-0, 3.18E-04 microM): 80.1%
- Relative cell count (%) Mean (786-O; 786-0, 3.18E-05 microM): 96.8%
- Cell Count Activity Area (786-O; 786-O): 4.01
- EC50 (786-O; Homo sapiens, 786-0, 786-O, read-out: Cell Count EC50): 1.59 nM
- GI50 (786-O; Homo sapiens, 786-0, 786-O, read-out: Cell Count GI50): 7.1 nM
- IC50 (786-O; Homo sapiens, 786-0, 786-O, read-out: Cell Count IC50): 16.2 nM
- Cell Count Activity Area (SK-MEL-28): 2.68
- Relative cell count (%) Mean (SK-MEL-28; 1.00E+00 microM): 60.6%
- Relative cell count (%) Mean (SK-MEL-28; 1.00E-01 microM): 69.8%
- Relative cell count (%) Mean (SK-MEL-28; 1.00E-02 microM): 84.3%
- Relative cell count (%) Mean (SK-MEL-28; 1.00E-03 microM): 91.6%
- Relative cell count (%) Mean (SK-MEL-28; 1.01E-04 microM): 110.7%
- Relative cell count (%) Mean (SK-MEL-28; 3.16E-01 microM): 66.4%
- Relative cell count (%) Mean (SK-MEL-28; 3.17E-02 microM): 71.0%
- Relative cell count (%) Mean (SK-MEL-28; 3.17E-03 microM): 85.4%
- Relative cell count (%) Mean (SK-MEL-28; 3.18E-04 microM): 94.6%
- Relative cell count (%) Mean (SK-MEL-28; 3.18E-05 microM): 102.8%
- EC50 (SK-MEL-28; Homo sapiens, Skin, Melanoma, summary Table 5, read-out: EC50): 4.8 nM
- EC50 (SK-MEL-28; [1]): 4.71 nM
- GI50 (SK-MEL-28; [2]): 38.2 nM
